Data set [1] concerns M. tuberculosis H37Rv. In words: M. tuberculosis H37Rv inhibition assays (MIC). The data set is classed as cell-based, Mycobacterium tuberculosis. As to conditions: for MIC: M. tuberculosis H37Rv.
In data set [2] the target is T1, mtFabH (Mycobacterium tuberculosis, UniProt P9WNG3). The data set can be described thus: mtFabH inhibition assay. The format is biochemical.
Data set [3] deals with FAS-II. In words: FAS-II assay. The format is biochemical. On the procedure: (§1) The molecules under investigation were designed to inhibit mtFabH in the mycobacterial FAS-II system, with selectivity over the related mammalian FAS-I system. To examine selectivity, the compounds were assessed using the procedures of Brown et al. and Slayden et al..
(§2) FAS-I and FAS-II experiments were conducted as per Slayden et al. (1996) using the 40–80% ammonium sulphate fraction. The standard reaction mixture for the incorporation of radioactivity from [2-^14C]malonyl-CoA into C16 to C24 fatty acids catalysed by FAS-I was composed as follows: 100 mM Tris.HCl pH 7.9, 5 mM EDTA, 5 mM dithiothreitol, 300 µM acetyl-CoA, 100 µM NADPH, 100 µM NADH, 1 µM flavin mononucleotide, 500 µM α-cyclodextrin, 300 µM CoA-SH, 100,000 cpm of [2-^14C] malonyl-CoA (specific activity 53 Ci/mol), test compound (0.5–200 µg/ml) and 2 mg of cytosolic enzyme preparation in a total volume of 500 µl. Similarly, the standard reaction mixture for incorporation of radioactivity from [2-^14C]malonyl-CoA into C24 to C30 fatty acids catalysed by FAS-II contained the following: 100 mM potassium phosphate buffer (pH 7.0), 5 mM EDTA, 5 mM dithiothreitol, 10 µM palmitoyl-CoA, 140 µM NADPH, 140 µM NADH, 100 µg of AcpM, 40 µM malonyl-CoA, 200,000 cpm of [2-^14C]malonyl-CoA (specific activity 53 Ci/mol), test compound (0.5–200 µg/ml) and 200 mg of cytosolic enzyme preparation in a total volume of 250 µl. In both the FAS-I and FAS-II assays, reactions were performed in triplicate at 37°C for 30 min and terminated by the addition of 250 µl of 20% potassium hydroxide in 50% methanol at 100°C for 45 min. Following acidification with 150 µl of 6 M HCl, the resultant ^14C-labelled fatty acids were extracted three times with petroleum ether. The organic extracts were pooled, washed once with an equal volume of water, and dried in a scintillation vial prior to counting.

The subject of data set [4] is M. tuberculosis H37Rv. As to conditions: cited from earlier work.
The conditions of data set [5]: no reference given; cited from earlier work.
The subject of data set [6] is FAS-I. The data set can be described thus: FAS-I assay. The format is biochemical. On the procedure:
as §1
as §2, with “In both the FAS-I and FAS-II assays, reactions were performed in triplicate at 37°C for 30 min and terminated by the addition of 250 µl of 20% potassium hydroxide in 50% methanol at 100°C for 45 min. Following acidification with 150 µl of 6 M HCl, the resultant ^14C-labelled fatty acids were extracted three times with petroleum ether. The organic extracts were pooled, washed once with an equal volume of water, and dried in a scintillation vial prior to counting.” left out

The conditions of data set [7]: mouse model; no reference given; cited from earlier work.
The target in data set [8] is T1, mtFabH. As to conditions: cited from earlier work.
Setting [9] is: Mycobacterium tuberculosis, N/A = no inhibition observed at 200 µg/ml, read-out: TB MIC (class N/A).
The mark [10] stands for this setting: N/A = no inhibition observed at 200 µg/ml, read-out: mtFabH IC50 (class N/A).
Where [11] appears, read: read-out: mtFabH IC50 (converted).
[12] abbreviates: Mycobacterium tuberculosis, read-out: TB MIC.

Molecules are shown by their SMILES. Where “and” joins values, the source holds several entries; their conditions need not be identical. Equal values may be shown once. Entries after “also recorded” stand apart in the source; their conditions may differ. Read-outs that look alike come from different tables or passages of the source.

The term melting point denotes the temperature of the solid-liquid transition. In general, logP refers to a log measure of how a compound divides between an organic and an aqueous phase.

T1 sequence (P9WNG3 2-335): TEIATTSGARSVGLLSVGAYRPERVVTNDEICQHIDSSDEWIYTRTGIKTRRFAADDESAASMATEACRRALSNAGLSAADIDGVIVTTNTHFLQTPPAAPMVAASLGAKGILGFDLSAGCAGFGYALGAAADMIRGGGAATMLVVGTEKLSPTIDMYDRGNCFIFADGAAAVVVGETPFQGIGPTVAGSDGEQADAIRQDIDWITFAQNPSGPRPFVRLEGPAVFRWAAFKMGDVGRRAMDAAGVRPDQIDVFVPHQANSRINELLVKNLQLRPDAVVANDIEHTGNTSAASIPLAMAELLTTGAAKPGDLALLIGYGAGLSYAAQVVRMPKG

In turn, `Nc1nc(C(=O)O)c(-c2ccccc2)s1` [Compound 10, 2-amino-5-phenylthiazole-4-carboxylic acid] showed a melting point of 242 to 243 °C. Also, the “inhibition of M. tuberculosis H37Rv (in words)” value in data set [1] was “inactive”. Further, the MIC in [1] (setting [9]) is > 200 µg/mL. Moreover, the IC50 in data set [2] (setting [10]) was > 908 µM.

Regarding `Cc1sc(NC(=O)CBr)nc1C(=O)O` [Compound 16, 2-(2-Bromoacetamido)-5-methylthiazole-4-carboxylic acid], the melting point lay within 218 to 220 °C. Besides, in data set [1] (setting [9]), the MIC was > 200 µg/mL. Also, the “inhibition of mtFabH (in words)” value in data set [2] is given as “failed to inhibit”. In [2] (setting [10]), the IC50 is > 717 µM.

In turn, `COC(=O)c1nc(NC(=O)CBr)sc1-c1ccccc1` [Compound 14, Methyl 2-(2-bromoacetamido)-5-phenylthiazole-4-carboxylate] returned a melting point of 218 to 220 °C. For the same compound, in data set [1] (setting [9]), the MIC is > 200 µg/mL. For the same compound, the “inhibition of FAS-II (in words)” value in data set [3] is “selective against FAS-II”. In addition, the “inhibition of mtFabH (in words)” value in data set [2] is listed as “active against mtFabH”. Further, the IC50 in [2] (setting [11]) is 3.1 µM and 3.22 µM.

With `NNC(=O)c1ccncc1` [INH, isoniazid], the MIC in [4] is 0.25 µg/ml and 1.8 µM. In addition, in [5], the logP was −1.1.

For the compound `COC(=O)c1nc(N)sc1C` [Compound 6, Methyl 2-amino-5-methylthiazole-4-carboxylate], the melting point was 165 to 168 °C. The MIC in data set [1] (setting [12]) is 16 µg/mL and 93 µM. Also, in data set [2] (setting [10]), the IC50 is > 1160 µM.

Compound `O=C(CBr)Nc1nc(C(=O)O)c(-c2ccccc2)s1` [Compound 17, 2-(2-Bromoacetamido)-5-phenylthiazole-4-carboxylic acid] showed a melting point of 208 to 210 °C. Further, in [1] (setting [9]), the MIC is > 200 µg/mL. The “inhibition of mtFabH (in words)” value in [2] is “failed to inhibit”. The IC50 in data set [2] (setting [10]) was > 586 µM.

On to `Nc1nc(C(=O)O)c(Cc2ccccc2)s1` [Compound 12, 2-amino-5-benzylthiazole-4-carboxylic acid], for which the melting point is 300 to 302 °C. The “inhibition of M. tuberculosis H37Rv (in words)” value in [1] was “inactive”. In addition, the MIC in [1] (setting [9]) was > 200 µg/mL. The IC50 in [2] (setting [10]) is > 854 µM.

As for `O=C(CBr)Nc1nc(C(=O)O)c(-c2cccc(Cl)c2)s1` [Compound 18, 2-(2-Bromoacetamido)-5-(3-chlorophenyl)thiazole-4-carboxylic acid], the melting point was in the range of 228 to 230 °C. Besides, in data set [1] (setting [9]), the MIC was > 200 µg/mL. Besides, the “inhibition of mtFabH (in words)” value in data set [2] is “failed to inhibit; also recorded: inactive”. Moreover, in data set [2] (setting [10]), the IC50 was > 532 µM.

Take `COC(=O)c1nc(NC(=O)CBr)sc1Cc1ccccc1` [Compound 15, Methyl 5-benzyl-2-(2-bromoacetamido)thiazole-4-carboxylate]: the melting point is 218 to 220 °C. Also, the MIC in [1] (setting [9]) is > 200 µg/mL. Further, the “inhibition of FAS-II (in words)” value in [3] is listed as “failed to inhibit the FAS enzymes”. Further, the IC50 in data set [2] (setting [11]) was 160 µM. For the same compound, in [6], the “inhibition of FAS-I (in words)” value was “failed to inhibit the FAS enzymes”.

As to `Nc1nc(C(=O)O)c(-c2cccc(Cl)c2)s1` [Compound 11, 2-amino-5-(3-chlorophenyl)thiazole-4-carboxylic acid], the melting point fell in the range of 242 to 244 °C. Besides, the “inhibition of M. tuberculosis H37Rv (in words)” value in data set [1] is on record as “active”. For the same compound, the MIC in data set [1] (setting [12]) was 32 µg/mL and 125 µM. In addition, the IC50 in data set [2] (setting [10]) is > 785 µM.

On to `C=C/C(C)=C/[C@@]1(C)SC(=O)C(C)=C1O` [1 (TLM), thiolactomycin], for which the MIC in [4] (listed as TLM) was 13 µg/ml and 62.5 µM. In data set [7], the oral availability entry is on record as “orally available” and the toxicity entry was “non-toxic”.

`COC(=O)c1nc(N)sc1Cc1ccccc1` [Compound 2, methyl 2-amino-5-benzylthiazole-4-carboxylate]: the MIC is 0.24 µM in [1] (read-out: TB MIC); 0.06 µg/mL and 0.24 µM in data set [1] (setting [12]). In data set [2], the “inhibition of mtFabH (in words)” value is “no activity”. In data set [2] (setting [10]), the IC50 was > 805 µM.

`Cc1sc(N)nc1C(=O)O` [Compound 9, 2-amino-5-methylthiazole-4-carboxylic acid]: the MIC in data set [1] (setting [12]) is 0.06 µg/mL and 0.35 µM. For the same compound, the IC50 in data set [2] (setting [10]) was > 1260 µM.

As for `COC(=O)c1nc(N)sc1-c1ccccc1` [Compound 7, Methyl 2-amino-5-phenylthiazole-4-carboxylate], the melting point was 218 to 221 °C. In addition, the “inhibition of M. tuberculosis H37Rv (in words)” value in data set [1] is “inactivity”. The MIC in [1] (setting [9]) is > 200 µg/mL. The IC50 in data set [2] (setting [10]) was > 854 µM.

Consider `O=C(CBr)Nc1nc(C(=O)O)c(Cc2ccccc2)s1` [Compound 19, 5-Benzyl-2-(2-bromoacetamido)thiazole-4-carboxylic acid], for which the melting point was in the range of 220 to 222 °C. The MIC in [1] (setting [9]) is > 200 µg/mL. In addition, the “inhibition of FAS-II (in words)” value in data set [3] was “inhibited both FAS-I and FAS-II”. Also, in data set [2] (setting [11]), the IC50 is 633 µM and 718 µM. In addition, the “inhibition of FAS-I (in words)” value in data set [6] was “inhibited both FAS-I and FAS-II”.

The compound `COC(=O)c1nc(NC(=O)CBr)sc1C` [Compound 13, Methyl 2-(2-bromoacetamido)-5-methylthiazole-4-carboxylate] showed a melting point of 220 to 222 °C. In data set [1] (setting [9]), the MIC is > 200 µg/mL. Moreover, the “inhibition of mtFabH (in words)” value in data set [2] is given as “fails to inhibit”. Besides, in data set [2] (setting [10]), the IC50 is > 682 µM.

For `CC1=C(O)C(C)(Cc2ccc(-c3ccc(C(=O)O)cc3)cc2)SC1=O` (centres unmarked) [Compound 4], in [8], the IC50 is 3.1 µM and 3 µM.

For `COC(=O)c1nc(N)sc1-c1cccc(Cl)c1` [Compound 8, Methyl 2-amino-5-(3-chlorophenyl)thiazole-4-carboxylate], the melting point is 229 to 232 °C. Moreover, the “inhibition of M. tuberculosis H37Rv (in words)” value in [1] was “inactive”. Further, the MIC in [1] (setting [9]) was > 200 µg/mL. In addition, the IC50 in data set [2] (setting [10]) is > 744 µM.

Turning to `COC(=O)c1nc(NC(=O)CBr)sc1-c1cccc(Cl)c1` [Compound 3, methyl 2-(2-bromoacetamido)-5-(3-chlorophenyl)thiazole-4-carboxylate], the “inhibition of M. tuberculosis H37Rv (in words)” value in data set [1] is given as “not active”. Further, the MIC in data set [1] (setting [9]) was > 200 µg/mL. Also, the “inhibition of FAS-II (in words)” value in [3] is “selective against FAS-II”. For the same compound, the “inhibition of mtFabH (in words)” value in data set [2] was “active against mtFabH”. Besides, the IC50 in [2] (setting [11]) is 2.44 µM and 2.43 µM.

The record behind these values is paper PMC2680598 (PLoS ONE, 2009).
